Assay results taken from patent US20260083761A1, “PHARMACEUTICAL COMPOSITION FOR TREATING BRAIN DISEASE, NEURONAL MIGRATION PROMOTER, AND USE THEREOF” (PUBLIC UNIVERSITY CORPORATION NAGOYA CITY UNIVERSITY, priority 2022, published 2026).

Assays:
[1] = tested on: V-SVZ-derived new neurons co-cultured with BV2 cells; test: Experiment 10: co-culture of V-SVZ-derived new neurons with LPS-stimulated BV2 cells; PSA signal and time-lapse imaging; type: cell-based, mouse; details: inhibitor final concentration 1 mM, vs PBS (LPS+) and control (LPS−)
[2] = tested on: new neurons migrating to the brain injury site; test: Experiment 13: Zanamivir in common marmosets with brain injury; PSA-NCAM and Dcx immunostaining; type: in vivo, common marmoset (Callithrix jacchus); details: common marmoset, 50 mg/kg i.p. for 21 days from day 7 after injury, fixed 28 days after injury
[3] = molecular target: T1, Neu4 (Homo sapiens, UniProt Q8WWR8); details: human neuraminidases; reported; cited from earlier work
T1 sequence (Q8WWR8 1-496 isoform Q8WWR8-2): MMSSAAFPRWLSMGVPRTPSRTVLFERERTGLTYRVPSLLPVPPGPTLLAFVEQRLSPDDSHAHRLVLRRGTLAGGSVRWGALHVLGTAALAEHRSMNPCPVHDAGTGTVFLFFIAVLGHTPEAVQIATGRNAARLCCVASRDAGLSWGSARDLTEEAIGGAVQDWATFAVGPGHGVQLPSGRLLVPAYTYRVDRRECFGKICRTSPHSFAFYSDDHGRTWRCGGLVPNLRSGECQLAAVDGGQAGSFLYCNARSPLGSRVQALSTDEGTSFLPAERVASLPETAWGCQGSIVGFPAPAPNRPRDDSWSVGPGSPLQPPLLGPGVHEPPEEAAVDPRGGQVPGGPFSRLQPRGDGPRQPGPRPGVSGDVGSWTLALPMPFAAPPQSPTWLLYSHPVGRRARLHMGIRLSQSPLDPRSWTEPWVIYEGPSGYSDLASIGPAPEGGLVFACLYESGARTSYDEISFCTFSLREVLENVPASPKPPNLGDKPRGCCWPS

[4] = molecular target: T2, Neu3 (Homo sapiens, UniProt Q9UQ49); details: human neuraminidases; reported; cited from earlier work
T2 sequence (Q9UQ49 1-461 isoform Q9UQ49-2): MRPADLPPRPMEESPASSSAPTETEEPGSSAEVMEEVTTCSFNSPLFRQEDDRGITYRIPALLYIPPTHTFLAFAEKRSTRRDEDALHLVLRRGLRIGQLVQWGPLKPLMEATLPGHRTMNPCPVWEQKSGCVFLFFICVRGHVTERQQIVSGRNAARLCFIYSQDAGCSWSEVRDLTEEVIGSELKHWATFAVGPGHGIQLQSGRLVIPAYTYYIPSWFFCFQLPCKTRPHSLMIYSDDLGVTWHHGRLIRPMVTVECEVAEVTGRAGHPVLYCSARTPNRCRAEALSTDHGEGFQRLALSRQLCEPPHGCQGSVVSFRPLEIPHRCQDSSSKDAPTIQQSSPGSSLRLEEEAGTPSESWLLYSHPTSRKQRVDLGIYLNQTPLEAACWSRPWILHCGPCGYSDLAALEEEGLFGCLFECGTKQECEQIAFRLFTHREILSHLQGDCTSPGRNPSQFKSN

[5] = tested on: V-SVZ-derived neurons; test: Experiment 12: Zanamivir in Nestin-CreERT2;NSE-DTA mice with new neurons removed; FFT and double-positive cells; type: in vivo, mouse; details: Nestin-CreERT2;NSE-DTA group, unlike NSE-DTA group; Zanamivir 50 mg/kg i.p. for 14 days from day 7 after injury; FFT 14 days after end of administration

Row | Structure (SMILES) | PSA signal intensity [1] | localization of new neurons (distance of Dcx-positive cells from the injury site) ([2]; vs control) | PSA signal intensity of new neurons localized in the striatum on the injury side ([2]; vs non-administration control) | inhibitory effect on human Neu4 [3] | inhibitory effect on human Neu3 [4] | left-side slipping-off rate in the FFT [5]
1 | CC(=O)N[C@H]1[C@H]([C@H](O)[C@H](O)CO)OC(C(=O)O)=C[C@@H]1O [DANA, 2,3-dehydro-2-deoxy-N-acetylneuraminic acid] | maintained |  |  |  |  | 
2 | CC(=O)N[C@H]1[C@H]([C@H](O)[C@H](O)CO)OC(C(=O)O)=C[C@@H]1N=C(N)N [Zanamivir] | maintained | localized closer to the injury site | maintain | inhibitory effect has been reported | inhibitory effect has been reported | no improvement
